#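 Five concentrations, 48 hours, 96-well plates. Abbreviation: GI50, concentration required for 50% inhibition of growth.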 The source made the active and inactive calls. No stated cut-off is given here; in the data, active = GI50 up to about 1.1 µM and inactive = higher.
# Experiments:
# Experiment in all cases: NCI tumour cell line growth inhibition, 48 h
# PC-3 = tested on: PC-3
# 786-0 = tested on: 786-0
# OVCAR-4 = tested on: OVCAR-4
# SNB-75 = tested on: SNB-75
# UACC-257 = tested on: UACC-257
# HOP-62 = tested on: HOP-62
# Hs-578T = tested on: Hs-578T
# SF-295 = tested on: SF-295
# U-251 = tested on: U-251
# SK-MEL-2 = tested on: SK-MEL-2
# HL-60 = tested on: HL-60
# M14 = tested on: M14
# UO-31 = tested on: UO-31
# SF-539 = tested on: SF-539
# IGROV-1 = tested on: IGROV-1
# T47D = tested on: T47D
# MCF7 = tested on: MCF7
# SK-OV-3 = tested on: SK-OV-3
# NCI-H23 = tested on: NCI-H23
# HOP-92 = tested on: HOP-92
SMILES,GI50 (PC-3),GI50 (786-0),GI50 (OVCAR-4),GI50 (SNB-75),GI50 (UACC-257),GI50 (HOP-62),GI50 (Hs-578T),GI50 (SF-295),GI50 (U-251),GI50 (SK-MEL-2),GI50 (HL-60),GI50 (M14),GI50 (UO-31),GI50 (SF-539),GI50 (IGROV-1),GI50 (T47D),GI50 (MCF7),GI50 (SK-OV-3),GI50 (NCI-H23),GI50 (HOP-92)
O=C(O)c1cc(/N=N/c2ccc([As](=O)(O)O)cc2)ccc1O,> 100 µM (inactive),> 100 µM (inactive),> 100 µM (inactive),> 100 µM (inactive),> 100 µM (inactive),> 100 µM (inactive),> 100 µM (inactive),> 100 µM (inactive),> 100 µM (inactive),> 100 µM (inactive),> 100 µM (inactive),> 100 µM (inactive),> 100 µM (inactive),> 100 µM (inactive),> 100 µM (inactive),> 100 µM (inactive),> 100 µM (inactive),> 100 µM (inactive),> 100 µM (inactive),–
CCOc1c(OC)cc(C2c3cc4c(c(OCC)c3CC3COC(=O)C32)OCO4)cc1OC (configuration not stated),2.37 µM (inactive),2.62 µM (inactive),8.28 µM (inactive),5.11 µM (inactive),0.912 µM (active),1.78 µM (inactive),1.99 µM (inactive),1 µM (active),1.63 µM (inactive),13.2 µM (inactive),–,3.15 µM (inactive),3.87 µM (inactive),1.75 µM (inactive),2.41 µM (inactive),23 µM (inactive),0.574 µM (active),4.03 µM (inactive),1.82 µM (inactive),37.1 µM (inactive)
COc1ccc(-n2c(CCC(=O)O)nc3c2C(=O)c2ccccc2C3=O)cc1,> 100 µM (inactive),> 100 µM (inactive),> 100 µM (inactive),> 100 µM (inactive),> 100 µM (inactive),> 100 µM (inactive),> 100 µM (inactive),> 100 µM (inactive),> 100 µM (inactive),88.1 µM (inactive),> 100 µM (inactive),> 100 µM (inactive),> 100 µM (inactive),> 100 µM (inactive),–,33 µM (inactive),84.5 µM (inactive),> 100 µM (inactive),> 100 µM (inactive),–
CCOC(=O)c1nc2ccccc2nc1Oc1ccc(C(=O)OC)cc1,> 100 µM (inactive),> 100 µM (inactive),> 100 µM (inactive),29 µM (inactive),> 100 µM (inactive),> 100 µM (inactive),> 100 µM (inactive),> 100 µM (inactive),> 100 µM (inactive),> 100 µM (inactive),–,> 100 µM (inactive),> 100 µM (inactive),> 100 µM (inactive),> 100 µM (inactive),> 100 µM (inactive),> 100 µM (inactive),> 100 µM (inactive),–,> 100 µM (inactive)
CC1=C(C#N)C2C(=C(N)Oc3ccccc32)C(N)=N1 (configuration not stated),33.3 µM (inactive),20.4 µM (inactive),32.8 µM (inactive),18.7 µM (inactive),20.1 µM (inactive),35.6 µM (inactive),26.1 µM (inactive),26.9 µM (inactive),34 µM (inactive),20.1 µM (inactive),29.1 µM (inactive),20.7 µM (inactive),17.4 µM (inactive),30.1 µM (inactive),25.4 µM (inactive),20.1 µM (inactive),6.56 µM (inactive),8.38 µM (inactive),> 10 µM (inactive),–
O=C1c2cccnc2C(=O)c2c1nc1ccccc1c2-c1cncc(-c2c3c(nc4ccccc24)C(=O)c2cccnc2C3=O)c1,0.303 µM (active),0.0995 µM (active),0.236 µM (active),0.398 µM (active),0.318 µM (active),0.281 µM (active),0.39 µM (active),0.614 µM (active),0.146 µM (active),0.693 µM (active),0.0687 µM (active),0.115 µM (active),0.244 µM (active),2.19 µM (inactive),< 0.0144 µM (active),0.439 µM (active),0.157 µM (active),0.363 µM (active),0.343 µM (active),–
